Data set [1] has as its system ECHORC (Watergrass (Calif.)). Kind of data set: Preemergence weed control under flooded paddy conditions. It counts as in vivo, Echinochloa oryzoides. The note with it: rated 3-4 weeks after treatment. In a few lines: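 First, seeds or propagules go into the top 0.5 cm of silt loam; next, water is held 1.5 to 3 cm over the soil; then compound (50/50 acetone/water) is pipetted into it at about 0.0313 to 0.500 kg/ha; finally plants are rated visually 0-9 after three to four weeks.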

A further data set relates to CYPSE (Flatsedge). Described as above. The note with it: rated 3-4 weeks after treatment. It counts as in vivo, Cyperus serotinus. A digest of the protocol:
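Greenhouse paddy assay. Acetone/water (50/50 v/v) solutions dosed into flood water, equivalent to about 0.0313 to 0.500 kg/ha active ingredient, over seeds planted 0.5 cm deep in silt loam. Score: 0-9 visual, based on stand, vigor, malformation, size and chlorosis, 3 to 4 weeks after treatment.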

The subject of the next data set is MOOVA (Monochoria). In words: Postemergence weed control under flooded paddy conditions. The note with it: postemergence weeds, 3-4 weeks after treatment. It counts as in vivo, Monochoria vaginalis. In a few lines:
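Flood-water application, about 0.0313–0.500 kg/ha a.i. in aqueous/acetone 50/50 v/v; water depth 1.5–3 cm throughout. Weeds 3–5 cm, rice 1.5–2.5 leaf. Greenhouse; 0–9 visual rating vs control at 3–4 wk.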

In data set [2] the test system is ORYSAT (Rice, Tebonnet). In words: Rice tolerance to post-transplant applications, flooded paddy conditions (Table III). It counts as in vivo, Oryza sativa, (L.) Tebonnet. The note with it: in vivo. In a few lines:
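Injury scored 0-9 by eye against untreated control, judging stand, vigor, malformation, size and chlorosis, three to four weeks after treatment. Compound in 50/50 aqueous/acetone, about 0.0313 to 0.500 kg/ha, was applied to paddy water (1.5 to 3 cm depth) three days after transplanting paired ten-day-old Tebonnet rice seedlings.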

The test system of the next data set is ECHCG (Barnyardgrass). In words: Postemergence herbicidal evaluation. It counts as in vivo, Echinochloa crus-galli. The note with it: for Herbicidal rating ECHCG: postemergence. In a few lines: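 Each compound, dispersed in an acetone/water mix (50/50) carrying 0.5% TWEEN 20, is nozzle-sprayed at 40 psi on approximately two-week-old seedlings at about 0.0156–0.500 kg/ha. Plants are assessed 4–5 weeks afterward on a 0–9 scale relative to control; duplicate tests are averaged.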

In data set [3] the test system is ORYSAT (Rice, Tebonnet). In words: Preemergence herbicidal evaluation. It counts as in vivo, Oryza sativa, (L.) Tebonnet. The note with it: rated 4-5 weeks after treatment, rating scale 0-9. A digest of the protocol:
(§1)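 Each species is sown separately in potting soil over roughly an inch of soil before any emergence. The soil surface then receives an aqueous acetone spray delivering about 0.0156 to 0.500 kg/ha of compound. After four to five weeks, injury is scored from 0 to 9 relative to a control.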

Data set [4] deals with CHEAL (Lambsquarters, Common). In words: Preemergence herbicidal evaluation. It counts as in vivo, Chenopodium album. The note with it: rated 4-5 weeks after treatment, rating scale 0-9. In a few lines:
as §1

Turning to “2-{{2-Chloro-5-[3,6-dihydro-3-methyl-2,6-dioxo-4-(trifluoromethyl)-1(2H)-pyrimidinyl]-4-fluoro-phenyl}imino}-4-oxo-3,5-thiazolidenediacetic acid, 3-ethyl (2-propynyl) ester, (2:1) mixture with di-2-propynyl ester [Compound 58]”, the “ECHORC herbicidal effect rating” value in data set [1] (0.0313 kg/ha) stood at 7.0. Further, the “Herbicidal rating ECHORC” value in data set [1] (0.0625 kg/ha) was determined as 7.0; in data set [1] (0.1250 kg/ha), 7.0; in data set [1] (0.2500 kg/ha) it was 9.0. For the same molecule, the “CYPSE herbicidal effect rating” value with CYPSE (Flatsedge) (0.0313 kg/ha) stood at 5.0. The “Herbicidal rating CYPSE” value in the data set on CYPSE (Flatsedge) (0.0625 kg/ha), with CYPSE (Flatsedge) (0.1250 kg/ha) and with CYPSE (Flatsedge) (0.2500 kg/ha) was 5.0 each time. Moreover, the “Herbicidal rating MOOVA” value is 0.0 in the data set with MOOVA (Monochoria) (rate 0.0313 kg/ha), 0.0 in the data set with MOOVA (Monochoria) (rate 0.0625 kg/ha), 3.0 in the data set on MOOVA (Monochoria) (rate 0.1250 kg/ha) and 9.0 with MOOVA (Monochoria) (rate 0.2500 kg/ha). For the same molecule, the “ORYSAT herbicidal effect rating (rice tolerance)” value with ORYSAT (Rice, Tebonnet) [2] is 4.0. Also, the “Postemergence herbicidal rating ECHCG” value in the data set on ECHCG (Barnyardgrass) (Rate 0.0158 kg/ha) came to 7.0; in the data set with ECHCG (Barnyardgrass) (Rate 0.0315 kg/ha), 7.0; in the data set on ECHCG (Barnyardgrass) (Rate 0.0630 kg/ha), 9.0.
`CCOC(=O)CN1C(=O)C(COC)SC1=Nc1cc(-n2c(=O)cc(C(F)(F)F)n(C)c2=O)c(F)cc1Cl` (stereo not drawn) [Compound 156, Ethyl 2-{{2-chloro-5-[3,6-dihydro-3-methyl-2,6-dioxo-4-(trifluoromethyl)-1(2H)-pyrimidinyl]-4-fluorophenyl}imino}-5-(methoxymethyl)-4-oxo-3-thiazolidine-acetate]: the “Preemergence herbicidal rating ORYSAT” value was determined as 0.0 in the data set with ORYSAT (Rice, Tebonnet) [3] (rate 0.0313 kg/ha); 0.0 with ORYSAT (Rice, Tebonnet) [3] (rate 0.0625 kg/ha); 0.0 in the data set with ORYSAT (Rice, Tebonnet) [3] (rate 0.1250 kg/ha); 3.0 in the data set with ORYSAT (Rice, Tebonnet) [3] (rate 0.2500 kg/ha). The “herbicidal effect rating, ECHORC” value in data set [1] (0.2500 kg/ha) was found to be 0.0. In addition, in the data set with CYPSE (Flatsedge) (0.2500 kg/ha), the “herbicidal effect rating, CYPSE” value amounted to 0.0. The “Preemergence herbicidal rating CHEAL” value in data set [4] (rate 0.0313 kg/ha), in data set [4] (rate 0.0625 kg/ha), in data set [4] (rate 0.1250 kg/ha) and in data set [4] (rate 0.2500 kg/ha) was 9.0 in each case. Further, in the data set on ORYSAT (Rice, Tebonnet) [2], the “herbicidal effect rating, ORYSAT (rice tolerance)” value was determined as 3.0. Moreover, the “Herbicidal rating ECHCG” value with ECHCG (Barnyardgrass) (rate 0.0156 kg/ha), in the data set on ECHCG (Barnyardgrass) (rate 0.0313 kg/ha) and in the data set on ECHCG (Barnyardgrass) (rate 0.0625 kg/ha) was 0.0 in each case.

Source of the values: US20020137929A1, “1 - (3-heterocyclylphenyl) isothiourea, -isourea, -guanidine and -amidine herbicidal agents” (Intellectual Property Department, BASF Aktiengesellschaft, priority 1998, published 2002).
